Type in all cases: functional
Assay [1] relates to Candida albicans. In words: Antifungal activity against fluconazole-resistant Candida albicans 632 assessed as inhibition of microbial growth after 24 hrs by broth microdilution method.
The subject of another assay is Candida parapsilosis. In words: Antifungal activity against Candida parapsilosis ATCC 22019 measured after 24 hrs by broth microdilution assay. Conditions: Lodderomyces parapsilosis.
For assay [2], the system named is Candida albicans. In words: Antifungal activity against fluconazole-resistant Candida albicans 901 assessed as inhibition of microbial growth after 24 hrs by broth microdilution method.
Assay [3] deals with Candida albicans. In words: Antifungal activity against Candida albicans CPCC400616 measured after 24 hrs by broth microdilution assay.
Assay [4] relates to Candida albicans. In words: Antifungal activity against fluconazole-resistant Candida albicans 17# assessed as inhibition of microbial growth after 24 hrs by broth microdilution method.
A further assay concerns Cryptococcus neoformans. In words: Antifungal activity against Cryptococcus neoformans CMGCC2.3161 measured after 72 hrs by broth microdilution assay.
The test system of the next assay is Nakaseomyces glabratus. In words: Antifungal activity against Candida glabrata measured after 24 hrs by broth microdilution assay.
Assay [5] concerns Candida albicans. In words: Antifungal activity against fluconazole-resistant Candida albicans 904 assessed as inhibition of microbial growth after 24 hrs by broth microdilution method.
Assay [6] deals with Candida albicans. In words: Antifungal activity against Candida albicans ATCC SC5314 measured after 24 hrs by broth microdilution assay.
The test system of the next assay is [Candida] zeylanoides. In words: Antifungal activity against Candida zeylanoides CMGCC2.3739 measured after 24 hrs by broth microdilution assay. As to conditions: Dujonia zeylanoides.
A further assay relates to Aspergillus fumigatus. In words: Antifungal activity against Aspergillus fumigatus CMGCC3.7795 measured after 72 hrs by broth microdilution assay.
The subject of a further assay is Pichia kudriavzevii. In words: Antifungal activity against Candida krusei AS2.1045 measured after 24 hrs by broth microdilution assay.
The test system of assay [7] is Candida albicans. In words: Antifungal activity against fluconazole-resistant Candida albicans CaR assessed as inhibition of microbial growth after 24 hrs by broth microdilution method.

The text below walks through data of ChEMBL document CHEMBL4813985, “Lead optimization generates selenium-containing miconazole CYP51 inhibitors with improved pharmacological profile for the treatment of fungal infections” (Eur J Med Chem, 2021).

Molecules are shown by their SMILES. ≈ marks a conversion by molar mass, not a printed value.

For the compound `Clc1ccc(C(Cn2cncn2)[Se]Cc2ccccc2)c(Cl)c1` (stereo unspecified), the MIC in the assay on Candida albicans [1] was more than 128 µg/mL; in the assay with Candida parapsilosis, 32 µg/mL (≈ 77.8 µM); in the assay on Candida albicans [2] it was more than 128 µg/mL; with Candida albicans [3], 0.13 µg/mL (≈ 0.316 µM); in the assay with Candida albicans [4], 64 µg/mL; with Cryptococcus neoformans it was 2 µg/mL (≈ 4.86 µM). In addition, the MIC is 4 µg/mL (≈ 9.73 µM) in the assay with Nakaseomyces glabratus; more than 128 µg/mL with Candida albicans [5]; 0.13 µg/mL (≈ 0.316 µM) against Candida albicans [6]; 64 µg/mL (≈ 156 µM) in [Candida] zeylanoides; 16 µg/mL (≈ 38.9 µM) in the assay with Aspergillus fumigatus; 128 µg/mL (≈ 311 µM) in the assay on Pichia kudriavzevii. In addition, the MIC with Candida albicans [7] is more than 128 µg/mL.

Consider `Fc1ccc(C(Cn2cncn2)[Se]Cc2ccc(Cl)cc2Cl)c(F)c1` (stereo unspecified), for which the MIC in the assay with Candida albicans [1] was more than 128 µg/mL; against Candida parapsilosis it was more than 128 µg/mL; in the assay with Candida albicans [2] it was more than 128 µg/mL; in the assay on Candida albicans [3] it was 0.13 µg/mL (≈ 0.291 µM); in the assay on Candida albicans [4], 64 µg/mL; against Cryptococcus neoformans, 4 µg/mL (≈ 8.95 µM). Besides, the MIC against Nakaseomyces glabratus was 2 µg/mL (≈ 4.47 µM); in the assay on Candida albicans [5], more than 128 µg/mL; against Candida albicans [6] it was 0.06 µg/mL (≈ 0.134 µM); in assay [Candida] zeylanoides, 64 µg/mL (≈ 143 µM); in the assay on Aspergillus fumigatus, 16 µg/mL (≈ 35.8 µM); against Pichia kudriavzevii, 128 µg/mL (≈ 286 µM). Further, the MIC with Candida albicans [7] is more than 128 µg/mL.

On to `Fc1ccc(C[Se]C(Cn2cncn2)c2ccc(F)cc2F)cc1` (stereo unspecified), for which the MIC was more than 128 µg/mL with Candida albicans [1]; 32 µg/mL (≈ 80.8 µM) against Candida parapsilosis; more than 128 µg/mL in the assay on Candida albicans [2]; 1 µg/mL (≈ 2.52 µM) against Candida albicans [3]; 32 µg/mL in the assay with Candida albicans [4]; 0.5 µg/mL (≈ 1.26 µM) in the assay with Cryptococcus neoformans. Also, the MIC against Nakaseomyces glabratus stood at 2 µg/mL (≈ 5.05 µM); in the assay on Candida albicans [5], 64 µg/mL; with Candida albicans [6], 0.25 µg/mL (≈ 0.631 µM); in assay [Candida] zeylanoides, 4 µg/mL (≈ 10.1 µM); against Aspergillus fumigatus it was 8 µg/mL (≈ 20.2 µM); against Pichia kudriavzevii, 8 µg/mL (≈ 20.2 µM). Also, the MIC in the assay on Candida albicans [7] was 128 µg/mL.

In the case of `COc1ccc(C[Se]C(Cn2cncn2)c2ccc(F)cc2F)cc1` (stereo unspecified), the MIC in the assay with Candida albicans [1] is more than 128 µg/mL; against Candida parapsilosis it was more than 128 µg/mL; with Candida albicans [2], more than 128 µg/mL; in the assay with Candida albicans [3], 1 µg/mL (≈ 2.45 µM); in the assay with Candida albicans [4], 64 µg/mL; in the assay with Cryptococcus neoformans, 32 µg/mL (≈ 78.4 µM). The minimum inhibitory concentration (MIC) in the assay on Nakaseomyces glabratus was 2 µg/mL (≈ 4.9 µM); in the assay on Candida albicans [5], more than 128 µg/mL; against Candida albicans [6], 2 µg/mL (≈ 4.9 µM); in [Candida] zeylanoides, 32 µg/mL (≈ 78.4 µM); in the assay with Aspergillus fumigatus, 4 µg/mL (≈ 9.8 µM); with Pichia kudriavzevii it was 32 µg/mL (≈ 78.4 µM). Also, the MIC in the assay with Candida albicans [7] came to 128 µg/mL.

Consider `Clc1ccc(C[Se]C(Cn2cncn2)c2ccc(Cl)cc2Cl)c(Cl)c1` (stereo unspecified), for which the MIC was more than 128 µg/mL in the assay on Candida albicans [1]; 64 µg/mL (≈ 133 µM) in the assay on Candida parapsilosis; more than 128 µg/mL with Candida albicans [2]; 0.25 µg/mL (≈ 0.521 µM) in the assay with Candida albicans [3]; more than 128 µg/mL with Candida albicans [4]; 64 µg/mL (≈ 133 µM) in the assay on Cryptococcus neoformans. Further, the MIC is 0.5 µg/mL (≈ 1.04 µM) against Nakaseomyces glabratus; more than 128 µg/mL in the assay on Candida albicans [5]; 0.25 µg/mL (≈ 0.521 µM) in the assay on Candida albicans [6]; 128 µg/mL (≈ 267 µM) in assay [Candida] zeylanoides; 16 µg/mL (≈ 33.3 µM) in the assay on Aspergillus fumigatus; 128 µg/mL (≈ 267 µM) against Pichia kudriavzevii. Moreover, the MIC in the assay on Candida albicans [7] was more than 128 µg/mL.

For the compound `Fc1ccc(C(Cn2cncn2)[Se]Cc2ccccc2Cl)c(F)c1` (stereo unspecified), the MIC in the assay on Candida albicans [1] is 8 µg/mL; in the assay with Candida parapsilosis it was 0.5 µg/mL (≈ 1.21 µM); in the assay on Candida albicans [2], 4 µg/mL; against Candida albicans [3] it was 0.03 µg/mL (≈ 0.0727 µM); with Candida albicans [4] it was 4 µg/mL; with Cryptococcus neoformans, 2 µg/mL (≈ 4.85 µM). In addition, the MIC against Nakaseomyces glabratus amounted to 2 µg/mL (≈ 4.85 µM); in the assay on Candida albicans [5], 2 µg/mL; with Candida albicans [6] it was 0.13 µg/mL (≈ 0.315 µM); in assay [Candida] zeylanoides, 1 µg/mL (≈ 2.42 µM); against Aspergillus fumigatus, 8 µg/mL (≈ 19.4 µM); against Pichia kudriavzevii it was 2 µg/mL (≈ 4.85 µM). Further, the MIC in the assay with Candida albicans [7] was found to be 32 µg/mL.

Regarding `Fc1ccc(C(Cn2cncn2)[Se]Cc2ccc(Cl)cc2)c(F)c1` (stereo unspecified), the MIC with Candida albicans [1] is more than 128 µg/mL; against Candida parapsilosis, 64 µg/mL (≈ 155 µM); in the assay on Candida albicans [2] it was 4 µg/mL; with Candida albicans [3], 0.13 µg/mL (≈ 0.315 µM); in the assay with Candida albicans [4] it was 16 µg/mL; in the assay on Cryptococcus neoformans, 4 µg/mL (≈ 9.69 µM). Moreover, the MIC in the assay with Nakaseomyces glabratus worked out at 0.5 µg/mL (≈ 1.21 µM); with Candida albicans [5] it was 8 µg/mL; in the assay with Candida albicans [6] it was 0.13 µg/mL (≈ 0.315 µM); in assay [Candida] zeylanoides, 4 µg/mL (≈ 9.69 µM); against Aspergillus fumigatus, 8 µg/mL (≈ 19.4 µM); with Pichia kudriavzevii, 128 µg/mL (≈ 310 µM). For the same compound, the MIC in the assay with Candida albicans [7] is 128 µg/mL.
